Assay [1] has as its target T1, IDH R132C (Homo sapiens, UniProt O75874, R132C).
T1 construct: expressed in transfected cells; host or cells: U87 cells
The assay is described as follows: Detection of 2-HG in supernatant of U87-IDH R132C cells. The assay is classed as cell-based. As to conditions: 72 h, LC-MS-MS, vs control; for inhibition at 0.001 µM: 1 nM compound, read-out: Inhibition rate of compounds on 2-HG in the supernatant of U87-IDH R132C cells, 1 nM; for inhibition at 0.01 µM: 10 nM compound, read-out: Inhibition rate of compounds on 2-HG in the supernatant of U87-IDH R132C cells, 10 nM; for inhibition at 0.1 µM: 100 nM compound, read-out: Inhibition rate of compounds on 2-HG in the supernatant of U87-IDH R132C cells, 100 nM. As to the method:
U87 cells overexpressing the IDH R132C mutation were seeded in a 48-well plate at 50,000 cells/well. After the cells were incubated overnight for adhesion, the supernatant was removed. The cell culture media containing serially diluted compounds were added, and the cells were incubated for 72 h. After 72 h, the cultures were collected and diluted 10-fold with water, and acetonitrile was added to extract the metabolites. The 2-HG content in the cultures was analyzed by LC-MS-MS, and the percentage inhibition of compounds on 2-HG in the supernatant was calculated as compared with the control.

Assay [2] has as its system 2-HG in HT1080 tumor tissues. The assay is described as follows: Detection of 2-HG in HT1080 tumor tissues of nude mice. The assay is classed as in vivo. To be noted: Mus musculus, HT-1080, sc, subcutaneous HT1080, 20 mg/kg. As to the method: Nude mice were inoculated subcutaneously with 1×10^6 HT1080 cells. When the tumor volume reached 100-150 mm^3, the mice were randomly grouped into solvent control group and compounds 1, 70, 79, 85, 96, 139, 157 and LY-3410738 20 mg/kg groups. The tumors were collected three days and seven days after continuous administration, weighed, digested with a digestion solution and then homogenized. The level of 2-HG in the tumor tissues were determined by LC-MS-MS. The percentage inhibition of compounds on 2-HG in tumor tissues was calculated as compared with the control.

Setting [3] is: 72 h, three days of continuous administration, read-out: Inhibition rate of compounds on 2-HG in HT1080 tumor tissues, 3 days.
The mark [4] stands for this setting: 168 h, seven days of continuous administration, read-out: Inhibition rate of compounds on 2-HG in HT1080 tumor tissues, 7 days.

Where two headings read alike, the source gives them in different places.

T1 sequence (O75874 whole entry R132C): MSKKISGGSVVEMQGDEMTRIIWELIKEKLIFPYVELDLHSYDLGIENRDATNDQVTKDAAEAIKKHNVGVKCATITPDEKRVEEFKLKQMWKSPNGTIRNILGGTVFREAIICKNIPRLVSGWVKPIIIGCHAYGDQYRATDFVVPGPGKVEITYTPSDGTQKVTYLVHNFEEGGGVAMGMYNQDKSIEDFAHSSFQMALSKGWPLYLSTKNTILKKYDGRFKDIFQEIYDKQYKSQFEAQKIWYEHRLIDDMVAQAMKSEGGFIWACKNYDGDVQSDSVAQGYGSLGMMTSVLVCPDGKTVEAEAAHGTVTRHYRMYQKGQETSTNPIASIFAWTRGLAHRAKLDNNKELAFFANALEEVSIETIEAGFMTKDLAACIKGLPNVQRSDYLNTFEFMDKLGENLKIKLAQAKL

Regarding `C=CC(=O)N1CCN(C(CC2CC2)c2ccc([C@H](C)Nc3ncc4c(n3)N(CC)C(=O)NC4)cc2)CC1` (stereo partly shown) [Compound 82], in assay [1], the inhibition at 0.001 µM lay in the range of 30 to 60%, the inhibition at 0.01 µM lay within 60 to 90% and the inhibition at 0.1 µM is over 90%.

As for `C=CC(=O)N1CCN([C@H](CC2CC2)c2ccc([C@H](C)Nc3ncc4cnc(=O)n(C(C)C)c4n3)cc2)CC1` [Compound 85-2], in assay [1], the inhibition at 0.001 µM fell in the range of 30 to 60%, the inhibition at 0.01 µM was in the range of 60 to 90% and the inhibition at 0.1 µM was over 90%.

Regarding `C=CC(=O)N1CC2(C1)CN(C(CC1CC1)c1ccc([C@H](C)Nc3ncc4cnc(=O)n(C(C)C)c4n3)cc1)C2` (stereo partly shown) [Compound 86], in assay [1], the inhibition at 0.001 µM lay within 60 to 90%, the inhibition at 0.01 µM is 60 to 90% and the inhibition at 0.1 µM was over 90%.

In the case of `C=CC(=O)NC1CCN(C(CC2CC2)c2ccc([C@H](C)Nc3ncc4cnc(=O)n(C(C)C)c4n3)cc2)CC1` (stereo partly shown) [Compound 96], the inhibition in vivo at 20 mg/kg turned out to be 29 ± 38% in assay [2] (setting [3]) and 78 ± 4% in assay [2] (setting [4]).

On to `C=CC(=O)N1CCN(C(CC2CC2)c2ccc(C3(Nc4ncc5cnc(=O)n(C(C)C)c5n4)CC3)cc2)CC1` (stereo not shown) [Compound 106], for which, in assay [1], the inhibition at 0.001 µM was 30 to 60%, the inhibition at 0.01 µM fell in the range of 60 to 90% and the inhibition at 0.1 µM is over 90%.

With `C=CC(=O)N1CCN(C(CC2CC2)c2ccc(C3(Nc4ncc5cnc(=O)n(CC)c5n4)CC3)cc2)CC1` (stereo not shown) [Compound 109], in assay [1], the inhibition at 0.001 µM fell in the range of 60 to 90%, the inhibition at 0.01 µM was 60 to 90% and the inhibition at 0.1 µM is over 90%.

`C=CC(=O)N1CCN(C(CC)c2ccc([C@H](C)Nc3ncc4cnc(=O)n(C(C)C)c4n3)cc2)CC1` (stereo partly shown) [Compound 112]: in assay [1], the inhibition at 0.001 µM was 60 to 90%, the inhibition at 0.01 µM was over 90% and the inhibition at 0.1 µM was over 90%.

Consider `C=CC(=O)N1CCN(C(CC(C)C)c2ccc([C@H](C)Nc3ncc4cnc(=O)n(C(C)C)c4n3)cc2)CC1` (stereo partly shown) [Compound 113], for which, in assay [1], the inhibition at 0.001 µM fell in the range of 60 to 90%, the inhibition at 0.01 µM is over 90% and the inhibition at 0.1 µM was over 90%.

Regarding `C=CC(=O)N1CCN([C@@H](CC2CC2)c2ccc([C@H](C)Nc3ncc4cnc(=O)n(CC)c4n3)cc2)CC1` [Compound 114-1], in assay [1], the inhibition at 0.001 µM fell in the range of 60 to 90%, the inhibition at 0.01 µM was over 90% and the inhibition at 0.1 µM is over 90%.

For `C=CC(=O)N1CCN([C@H](CC2CC2)c2ccc([C@H](C)Nc3ncc4cnc(=O)n(CC)c4n3)cc2)CC1` [Compound 114-2], in assay [1], the inhibition at 0.001 µM was 30 to 60%, the inhibition at 0.01 µM was over 90% and the inhibition at 0.1 µM is over 90%.

As to `C=CC(=O)N1CCN(C(CC2CC2)c2ccc([C@H](C)Nc3ncc4cnc(=O)n(CC)c4n3)cc2)CC1` (stereo partly shown) [Compound 114], in assay [1], the inhibition at 0.001 µM fell in the range of 60 to 90%, the inhibition at 0.01 µM is over 90% and the inhibition at 0.1 µM is over 90%.

For `C=CC(=O)N1CCN(C(CC)c2ccc([C@H](C)Nc3ncc4cnc(=O)n(CC)c4n3)cc2)CC1` (stereo partly shown) [Compound 115], in assay [1], the inhibition at 0.001 µM fell in the range of 30 to 60%, the inhibition at 0.01 µM is over 90% and the inhibition at 0.1 µM is over 90%.

For `C=CC(=O)N1CCN([C@@H](CC)c2ccc([C@H](C)Nc3ncc4cnc(=O)n(CC)c4n3)cc2)CC1` [Compound 116-1], in assay [1], the inhibition at 0.001 µM lay within 60 to 90%, the inhibition at 0.01 µM is over 90% and the inhibition at 0.1 µM was over 90%.

For `C=CC(=O)N1CCN([C@H](CC)c2ccc([C@H](C)Nc3ncc4cnc(=O)n(CC)c4n3)cc2)CC1` [Compound 116-2], in assay [1], the inhibition at 0.001 µM was 30 to 60%, the inhibition at 0.01 µM is 60 to 90% and the inhibition at 0.1 µM was over 90%.

Turning to `C=CC(=O)N1CCN(C(CC(C)C)c2ccc([C@H](C)Nc3ncc4cnc(=O)n(CC)c4n3)cc2)CC1` (stereo partly shown) [Compound 116], in assay [1], the inhibition at 0.001 µM fell in the range of 60 to 90%, the inhibition at 0.01 µM was over 90% and the inhibition at 0.1 µM is over 90%.

In the case of `C=CC(=O)N1CCN(C(CC(C)(C)C)c2ccc([C@H](C)Nc3ncc4cnc(=O)n(C(C)C)c4n3)cc2)CC1` (stereo partly shown) [Compound 124], in assay [1], the inhibition at 0.001 µM lay within 30 to 60%, the inhibition at 0.01 µM is 60 to 90% and the inhibition at 0.1 µM is over 90%.

Regarding `C=CC(=O)N1CCN(C(CC2CCC2)c2ccc([C@H](C)Nc3ncc4cnc(=O)n(C(C)C)c4n3)cc2)CC1` (stereo partly shown) [Compound 125], in assay [1], the inhibition at 0.001 µM lay in the range of 30 to 60%, the inhibition at 0.01 µM fell in the range of 60 to 90% and the inhibition at 0.1 µM was over 90%.

On to `C=CC(=O)N1CCN(C(CC2(C)CC2)c2ccc([C@H](C)Nc3ncc4cnc(=O)n(CC)c4n3)cc2)CC1` (stereo partly shown) [Compound 131], for which, in assay [1], the inhibition at 0.001 µM was 60 to 90%, the inhibition at 0.01 µM is over 90% and the inhibition at 0.1 µM was over 90%.

In the case of `C=CC(=O)N1CCN(C(CC2CCC2)c2ccc([C@H](C)Nc3ncc4c(n3)N(CC)C(=O)OC4)cc2)CC1` (stereo partly drawn) [Compound 139, 7-(((1S)-1-(4-(1-(4-acryloylpiperazin-1-yl)-2-cyclobutylethyl)-phenyl)ethyl)amino)-1-ethyl-1,4-dihydro-2H-pyrimido[4,5-d][1,3]oxazin-2-one], the figures for the inhibition in vivo at 20 mg/kg in assay [2] (setting [3]) and in assay [2] (setting [4]) were 57 ± 1.8% and 99 ± 0.4%, respectively.

As to `C=CC(=O)N1CCN(C(CCC)c2ccc([C@H](C)Nc3ncc4c(n3)N(CC)C(=O)OC4)cc2)CC1` (stereo partly shown) [Compound 141], in assay [1], the inhibition at 0.001 µM is 30 to 60%, the inhibition at 0.01 µM fell in the range of 60 to 90% and the inhibition at 0.1 µM is over 90%.

Turning to `C=CC(=O)N1CCN(C(CC2CCC2)c2ccc([C@H](C)Nc3ncc4c(n3)N(C(C)C)C(=O)OC4)cc2)CC1` (stereo partly shown) [Compound 143], in assay [1], the inhibition at 0.001 µM lay in the range of 30 to 60%, the inhibition at 0.01 µM lay within 60 to 90% and the inhibition at 0.1 µM is over 90%.

Regarding `C=CC(=O)N1CCN(C(CC(C)(C)C)c2ccc([C@H](C)Nc3ncc4c(n3)N(C(C)C)C(=O)OC4)cc2)CC1` (stereo partly shown) [Compound 146], in assay [1], the inhibition at 0.001 µM fell in the range of 30 to 60%, the inhibition at 0.01 µM fell in the range of 60 to 90% and the inhibition at 0.1 µM was over 90%.

As for `C=CC(=O)N1CCN([C@@H](CC2CC2)c2ccc([C@H](C)Nc3ncc4c(n3)N(C(C)C)C(=O)OC4)cc2)CC1` [Compound 147-1], in assay [1], the inhibition at 0.001 µM lay in the range of 60 to 90%, the inhibition at 0.01 µM was over 90% and the inhibition at 0.1 µM is over 90%.

On to `C=CC(=O)N1CCN([C@H](CC2CC2)c2ccc([C@H](C)Nc3ncc4c(n3)N(C(C)C)C(=O)OC4)cc2)CC1` [Compound 147-2], for which, in assay [1], the inhibition at 0.001 µM is 30 to 60%, the inhibition at 0.01 µM is 60 to 90% and the inhibition at 0.1 µM is over 90%.

On to `C=CC(=O)N1CCN(C(CC2CC2)c2ccc([C@H](C)Nc3ncc4c(n3)N(C(C)C)C(=O)OC4)cc2)CC1` (stereo partly shown) [Compound 147], for which, in assay [1], the inhibition at 0.001 µM was in the range of 60 to 90%, the inhibition at 0.01 µM is over 90% and the inhibition at 0.1 µM was over 90%.

Turning to `C=CC(=O)N1CCN(C(CC2CC2)c2ccc(C3(Nc4ncc5c(n4)N(C(C)C)C(=O)OC5)CC3)cc2)CC1` (stereo not shown) [Compound 148], in assay [1], the inhibition at 0.001 µM was under 30%, the inhibition at 0.01 µM was 60 to 90% and the inhibition at 0.1 µM is over 90%.

As for `C=CC(=O)N1CCN(C(CC2CC2)c2ccc(C3(Nc4ncc5c(n4)N(CC)C(=O)OC5)CC3)cc2)CC1` (stereo not shown) [Compound 152], in assay [1], the inhibition at 0.001 µM fell in the range of 30 to 60%, the inhibition at 0.01 µM is over 90% and the inhibition at 0.1 µM is over 90%.

As to `C=CC(=O)N1CCN(C(CC2CCC2)c2ccc(C3(Nc4ncc5c(n4)N(CC)C(=O)OC5)CC3)cc2)CC1` (stereo not shown) [Compound 153], in assay [1], the inhibition at 0.001 µM lay in the range of 30 to 60%, the inhibition at 0.01 µM lay in the range of 60 to 90% and the inhibition at 0.1 µM was over 90%.

In the case of `C=CC(=O)N1CCN(C(CC2(C)CC2)c2ccc([C@H](C)Nc3ncc4c(n3)N(CC)C(=O)OC4)cc2)CC1` (stereo partly shown) [Compound 156], in assay [1], the inhibition at 0.001 µM was 60 to 90%, the inhibition at 0.01 µM was over 90% and the inhibition at 0.1 µM was over 90%.

As to `C=CC(=O)N1CCN([C@@H](CC23CC(C2)C3)c2ccc([C@H](C)Nc3ncc4c(n3)N(CC)C(=O)OC4)cc2)CC1` [Compound 157-1], in assay [1], the inhibition at 0.001 µM was in the range of 60 to 90%, the inhibition at 0.01 µM is over 90% and the inhibition at 0.1 µM was over 90%.

For `C=CC(=O)N1CCN([C@H](CC23CC(C2)C3)c2ccc([C@H](C)Nc3ncc4c(n3)N(CC)C(=O)OC4)cc2)CC1` [Compound 157-2], in assay [1], the inhibition at 0.001 µM lay within 30 to 60%, the inhibition at 0.01 µM lay in the range of 60 to 90% and the inhibition at 0.1 µM is over 90%.

As to `N#Cc1ccnc(N2C(=O)CC[C@H]2C(=O)N(c2cncc(F)c2)[C@H](C(=O)NC2CC(F)(F)C2)c2ccccc2Cl)c1` [Ivosidenib, ivosidenib, reference compound], in assay [1], the inhibition at 0.001 µM is under 30%, the inhibition at 0.01 µM was under 30% and the inhibition at 0.1 µM lay in the range of 60 to 90%.

One may read the inhibition as the share of the control response that was lost under treatment.

The record behind these values is patent US12559505B2, “IDH mutant inhibitor and use thereof” (WIGEN BIOMEDICINE TECHNOLOGY (SHANGHAI) CO., LTD., priority 2020, dated 2026).
